Test results taken from patent US8039586B1, “Cerebral organic anion transporter and its gene” (J-Pharma Co., Ltd., priority 1998, dated 2011).
Like-named read-outs stand apart in the source and are kept apart here.

What was measured:
Assay type in all cases: cell-based
hOAT3 [1] = molecular target: T1, hOAT3 (Homo sapiens, UniProt Q8TCC7, D366H/K271E); test: Inhibition of 3H-estrone sulfate uptake in oocyte injected with hOAT3 cRNA; design: cRNA (RNA complementary to cDNA) was prepared in vitro from the plasmid comprising the hOAT3 recovered above; expressed in transfected cells; host or cells: Xenopus oocytes injected with hOAT3 cRNA; settings: 50 nM 3H-estrone sulfate; non-radiolabeled compound at 500 μM or the concentration shown in FIG. 19; one hour
T1 sequence (Q8TCC7 1-542 K271E/D366H): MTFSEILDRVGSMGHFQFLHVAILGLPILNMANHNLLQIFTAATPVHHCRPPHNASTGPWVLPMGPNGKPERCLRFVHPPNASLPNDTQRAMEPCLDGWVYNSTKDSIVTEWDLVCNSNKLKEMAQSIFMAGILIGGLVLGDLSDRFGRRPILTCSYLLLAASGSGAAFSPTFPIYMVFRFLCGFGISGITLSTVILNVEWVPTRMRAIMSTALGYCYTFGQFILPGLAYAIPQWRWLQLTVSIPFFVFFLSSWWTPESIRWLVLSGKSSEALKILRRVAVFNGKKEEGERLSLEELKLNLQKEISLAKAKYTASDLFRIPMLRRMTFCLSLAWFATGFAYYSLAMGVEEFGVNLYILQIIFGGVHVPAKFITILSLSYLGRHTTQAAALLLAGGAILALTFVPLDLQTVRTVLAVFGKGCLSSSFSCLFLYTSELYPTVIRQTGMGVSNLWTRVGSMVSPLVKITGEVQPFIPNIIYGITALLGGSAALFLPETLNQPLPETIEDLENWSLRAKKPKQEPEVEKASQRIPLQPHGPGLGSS

hOAT3 [2] = molecular target: T2, hOAT3 (Homo sapiens, UniProt Q8TCC7); test: Uptake of radiolabeled compounds by Xenopus oocyte injected with hOAT3 cRNA
T2 construct: cRNA (RNA complementary to cDNA) was prepared in vitro from the plasmid comprising the hOAT3 recovered above; expressed in transfected cells; host or cells: Xenopus oocytes injected with hOAT3 cRNA
T2 sequence (Q8TCC7 1-542 K271E/D366H): T1 sequence (Q8TCC7 1-542 K271E/D366H)
Experimental: By using T7 RNA polymerase, cRNA (RNA complementary to cDNA) was prepared in vitro from the plasmid comprising the hOAT3 recovered above by the method by Sekine, et al. (see Sekine, T., et al. J. Biol. Chem., Vol. 272, pp. 18526-9, 1997).
According to the already reported method of Sekine, et al. (Sekine, T., et al. J. Biol. Chem., Vol. 272, pp. 18526-9, 1997), the resulting hOAT3 cRNA was injected in the Xenopus oocyte; the oocyte was subjected to an uptake test with various radiolabeled organic anions and organic cations. The control oocyte cell (oocyte cell with no injection of hOAT3 cRNA) and the oocyte cell injected with hOAT3 cRNA were cultured in a buffer containing the following radiolabels for one hour, to assay the uptake of the radiolabels into the oocytes.
In each figure, open column expresses the case of the control oocyte used; and closed column expresses the case of the oocyte injected with hOAT3 cRNA.

rat OAT3 (rk1411) = molecular target: T3, rat OAT3 (rk1411) (Rattus norvegicus, UniProt Q9R1U7); test: Inhibition of 3H-estrone sulfate uptake in oocyte injected with rk1411 cRNA
T3 construct: cRNA (RNA complementary to cDNA) was prepared in vitro from the plasmid carrying the clone (rk1411); expressed in transfected cells; host or cells: Xenopus oocytes injected with rk1411 cRNA
T3 sequence (Q9R1U7 1-536): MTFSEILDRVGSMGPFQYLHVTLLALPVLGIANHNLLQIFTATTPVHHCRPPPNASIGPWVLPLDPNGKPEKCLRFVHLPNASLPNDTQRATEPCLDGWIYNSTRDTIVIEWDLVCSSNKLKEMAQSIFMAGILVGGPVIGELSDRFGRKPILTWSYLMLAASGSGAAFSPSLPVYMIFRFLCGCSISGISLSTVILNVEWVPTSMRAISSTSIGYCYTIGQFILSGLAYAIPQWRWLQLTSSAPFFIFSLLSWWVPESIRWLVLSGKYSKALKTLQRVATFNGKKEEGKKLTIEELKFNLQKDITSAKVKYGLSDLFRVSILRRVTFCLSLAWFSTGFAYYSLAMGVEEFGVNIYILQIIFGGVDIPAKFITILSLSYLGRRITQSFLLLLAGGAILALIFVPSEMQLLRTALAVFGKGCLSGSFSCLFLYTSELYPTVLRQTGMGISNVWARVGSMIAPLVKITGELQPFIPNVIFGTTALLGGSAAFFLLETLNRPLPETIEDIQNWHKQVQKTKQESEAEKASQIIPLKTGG

[3] = 1 mM unlabeled compound, Xenopus oocyte, FIG. 3
[4] = substrate 10 μM, one hour, versus control oocyte
[5] = substrate 50 nM, one hour, versus control oocyte

Molecule: CC[N+](CC)(CC)CC [TEA, tetraethylammonium]
- inhibition of the transport of 3H-estrone sulfate with hOAT3 (hOAT3 [1]): never exerted any inhibitory action
- uptake of radiolabeled compound by oocyte with hOAT3 expression (hOAT3 [2]): never transported

Molecule: CC1(C)S[C@@H]2[C@H](NC(=O)Cc3ccccc3)C(=O)N2[C@H]1C(=O)O [benzylpenicillin]
- inhibition of the transport of 3H-estrone sulfate with hOAT3 (hOAT3 [1]): significantly inhibited
- inhibition of 3H-estrone sulfate transport with rk1411 (rat OAT3 (rk1411); [3]): significantly inhibited

Molecule: COc1ccc(CCN(C)CCCC(C#N)(c2ccc(OC)c(OC)c2)C(C)C)cc1OC (centres unmarked) [berapamil]
- inhibition of 3H-estrone sulfate transport with rk1411 (rat OAT3 (rk1411); [3]): never exerted any such inhibitory action

Molecule: O=C1OC(c2ccc(O)c(S(=O)(=O)O)c2)(c2ccc(O)c(S(=O)(=O)O)c2)c2c(Br)c(Br)c(Br)c(Br)c21 [bromosulfophthalein]
- inhibition of the transport of 3H-estrone sulfate with hOAT3 (hOAT3 [1]): significantly inhibited
- inhibition of 3H-estrone sulfate transport with rk1411 (rat OAT3 (rk1411); [3]): significantly inhibited

Molecule: CCCCNc1cc(C(=O)O)cc(S(N)(=O)=O)c1Oc1ccccc1 [bumetanide]
- inhibition of 3H-estrone sulfate transport with rk1411 (rat OAT3 (rk1411); [3]): significantly inhibited

Molecule: C[C@H](CCC(=O)O)[C@H]1CC[C@H]2[C@@H]3[C@H](O)C[C@@H]4C[C@H](O)CC[C@]4(C)[C@H]3C[C@H](O)[C@]12C [cholic acid]
- inhibition of 3H-estrone sulfate transport with rk1411 (rat OAT3 (rk1411); [3]): significantly inhibited
- uptake of radiolabeled compound by oocyte with hOAT3 expression (hOAT3 [2]; [4]): takes up

Molecule: CN/C(=N/CCSCc1nc[nH]c1C)NC#N [cimetidine]
- uptake of radiolabeled compound by oocyte with hOAT3 expression (hOAT3 [2]; substrate 150 nM, one hour, versus control oocyte): takes up

Molecule: C[C@]12CC[C@@H]3c4ccc(O)cc4CC[C@H]3[C@@H]1CC[C@@H]2O[C@@H]1O[C@H](C(=O)O)[C@@H](O)[C@H](O)[C@H]1O [estradiol glucuronide]
- uptake of radiolabeled compound by oocyte with hOAT3 expression (hOAT3 [2]; [5]): takes up

Molecule: O=C(O)CCCC(=O)O [glutaric acid]
- inhibition of the transport of 3H-estrone sulfate with hOAT3 (hOAT3 [1]): significantly inhibited
- uptake of radiolabeled compound by oocyte with hOAT3 expression (hOAT3 [2]; [4]): takes up

Molecule: N=C(N)N [guanidine]
- inhibition of 3H-estrone sulfate transport with rk1411 (rat OAT3 (rk1411); [3]): never exerted any such inhibitory action

Molecule: CC1(C)C(/C=C/C=C/C=C/C=C2\N(CCCCS(=O)(=O)O)c3ccc4ccccc4c3C2(C)C)=[N+](CCCCS(=O)(=O)[O-])c2ccc3ccccc3c21 [indocyanine green]
- inhibition of 3H-estrone sulfate transport with rk1411 (rat OAT3 (rk1411); [3]): significantly inhibited

Molecule: COc1ccc2c(c1)c(CC(=O)O)c(C)n2C(=O)c1ccc(Cl)cc1 [indomethacin]
- inhibition of the transport of 3H-estrone sulfate with hOAT3 (hOAT3 [1]): significantly inhibited
- uptake of radiolabeled compound by oocyte with hOAT3 expression (hOAT3 [2]; [4]): takes up

Molecule: CN(Cc1cnc2nc(N)nc(N)c2n1)c1ccc(C(=O)N[C@@H](CCC(=O)O)C(=O)O)cc1 [methotrexate]
- inhibition of the transport of 3H-estrone sulfate with hOAT3 (hOAT3 [1]): significantly inhibited
- uptake of radiolabeled compound by oocyte with hOAT3 expression (hOAT3 [2]; substrate 100 nM, one hour, versus control oocyte): takes up

Molecule: CCCN(CCC)S(=O)(=O)c1ccc(C(=O)O)cc1 [probenecid]
- inhibition of the transport of 3H-estrone sulfate with hOAT3 (hOAT3 [1]): significantly inhibited
- inhibition of 3H-estrone sulfate transport with rk1411 (rat OAT3 (rk1411); [3]): significantly inhibited

Molecule: CCCCC[C@H](O)/C=C/[C@H]1[C@H](O)CC(=O)[C@@H]1C/C=C\CCCC(=O)O [prostaglandin E2]
- uptake of radiolabeled compound by oocyte with hOAT3 expression (hOAT3 [2]; substrate 1 nM, one hour, versus control oocyte): takes up

Molecule: CN1C(C(=O)Nc2ccccn2)=C(O)c2ccccc2S1(=O)=O [pyroxicam]
- inhibition of 3H-estrone sulfate transport with rk1411 (rat OAT3 (rk1411); [3]): significantly inhibited

Molecule: O=C(O)c1ccccc1O [salicylic acid]
- uptake of radiolabeled compound by oocyte with hOAT3 expression (hOAT3 [2]; substrate 1 μM, one hour, versus control oocyte): takes up

Molecule: C[C@H](CCC(=O)NCCS(=O)(=O)O)[C@H]1CC[C@H]2[C@@H]3[C@H](O)C[C@@H]4C[C@H](O)CC[C@]4(C)[C@H]3C[C@H](O)[C@]12C [taurocholic acid]
- inhibition of the transport of 3H-estrone sulfate with hOAT3 (hOAT3 [1]): significantly inhibited
- inhibition of 3H-estrone sulfate transport with rk1411 (rat OAT3 (rk1411)): significantly inhibited
- uptake of radiolabeled compound by oocyte with hOAT3 expression (hOAT3 [2]; [4]): takes up

Molecule: dehydroepiandrosterone sulfate
- uptake of radiolabeled compound by oocyte with hOAT3 expression (hOAT3 [2]; [5]): takes up
